Source: PubChem BioAssay AID1845197 (Molecular Pharmacology Branch, DTP, NCI, 2023)

Tested on: 349418-098-R tumor spheroid viability
Assay: Anticancer human tumor 349418-098-R patient-derived lung adenocarcinoma cell line growth inhibition
Conditions: spheroids with HUVEC and MSC; for IC50: curve of first compound; for viability, T/C: stronger effect = lower value
Procedure, shortened: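 Complex tumor spheroids combined malignant cells with endothelial cells and mesenchymal stem cells. DNA-damaging drugs and DNA repair inhibitors were tested alone and in combination, at half-log dilutions down from clinical Cmax (top 10 microM if Cmax unknown), 0.25% DMSO final.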
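Also: spheroids exposed to compound for 7 days before measurement.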
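For viability, T/C in this document: percent of vehicle control viability with 100% = DMSO-treated spheroids.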

## O=C(c1cc(Cc2n[nH]c(=O)c3ccccc23)ccc1F)N1CCN(C(=O)C2CC2)CC1 + Cn1nnc2c(C(N)=O)ncn2c1=O
Second compound 1 µM
  IC50: > 30 µM
Second compound 3.16 µM
  IC50: > 30 µM
Second compound 10 µM
  IC50: 23.2 µM
Second compound 31.6 µM
  IC50: 7.27 µM
Second compound 100 µM
  IC50: 1.81 µM
Second compound 1 µM, first compound 0.0949 µM
  viability, T/C: 98.5%
Second compound 1 µM, first compound 0.3 µM
  viability, T/C: 98.9%
Second compound 1 µM, first compound 0.949 µM
  viability, T/C: 103%
Second compound 1 µM, first compound 3 µM
  viability, T/C: 98.7%
Second compound 1 µM, first compound 9.49 µM
  viability, T/C: 79.9%
Second compound 1 µM, first compound 30 µM
  viability, T/C: 57%
Second compound 3.16 µM, first compound 0.0949 µM
  viability, T/C: 99.5%
Second compound 3.16 µM, first compound 0.3 µM
  viability, T/C: 100%
Second compound 3.16 µM, first compound 0.949 µM
  viability, T/C: 99%
Second compound 3.16 µM, first compound 3 µM
  viability, T/C: 99%
Second compound 3.16 µM, first compound 9.49 µM
  viability, T/C: 89.1%
Second compound 3.16 µM, first compound 30 µM
  viability, T/C: 60.3%
Second compound 10 µM, first compound 0.0949 µM
  viability, T/C: 103%
Second compound 10 µM, first compound 0.3 µM
  viability, T/C: 103%
Second compound 10 µM, first compound 0.949 µM
  viability, T/C: 102%
Second compound 10 µM, first compound 3 µM
  viability, T/C: 96.8%
Second compound 10 µM, first compound 9.49 µM
  viability, T/C: 81.9%
Second compound 10 µM, first compound 30 µM
  viability, T/C: 40.5%
Second compound 31.6 µM, first compound 0.0949 µM
  viability, T/C: 102%
Second compound 31.6 µM, first compound 0.3 µM
  viability, T/C: 98.5%
Second compound 31.6 µM, first compound 0.949 µM
  viability, T/C: 100%
Second compound 31.6 µM, first compound 3 µM
  viability, T/C: 94.7%
Second compound 31.6 µM, first compound 9.49 µM
  viability, T/C: 36.6%
Second compound 31.6 µM, first compound 30 µM
  viability, T/C: 16%
Second compound 100 µM, first compound 0.0949 µM
  viability, T/C: 96.5%
Second compound 100 µM, first compound 0.3 µM
  viability, T/C: 98%
Second compound 100 µM, first compound 0.949 µM
  viability, T/C: 78.2%
Second compound 100 µM, first compound 3 µM
  viability, T/C: 27.9%
Second compound 100 µM, first compound 9.49 µM
  viability, T/C: 10.2%
Second compound 100 µM, first compound 30 µM
  viability, T/C: 9.95%

## O=C(c1cc(Cc2n[nH]c(=O)c3ccccc23)ccc1F)N1CCN(C(=O)C2CC2)CC1 + COc1cc2c(cc1O)CCNC21CSC2c3c(OC(C)=O)c(C)c4c(c3C(COC1=O)N1C(O)C3Cc5cc(C)c(OC)c(O)c5C(C21)N3C)OCO4
Second compound 30 pM
  IC50: > 30 µM
Second compound 94.9 pM
  IC50: > 30 µM
Second compound 0.0003 µM
  IC50: 3.7 µM
Second compound 0.000949 µM
  IC50: < 0.0949 µM
Second compound 0.003 µM
  IC50: < 0.0949 µM
Second compound 30 pM, first compound 0.0949 µM
  viability, T/C: 122%
Second compound 30 pM, first compound 0.3 µM
  viability, T/C: 107%
Second compound 30 pM, first compound 0.949 µM
  viability, T/C: 108%
Second compound 30 pM, first compound 3 µM
  viability, T/C: 111%
Second compound 30 pM, first compound 9.49 µM
  viability, T/C: 107%
Second compound 30 pM, first compound 30 µM
  viability, T/C: 69.6%
Second compound 94.9 pM, first compound 0.0949 µM
  viability, T/C: 104%
Second compound 94.9 pM, first compound 0.3 µM
  viability, T/C: 108%
Second compound 94.9 pM, first compound 0.949 µM
  viability, T/C: 102%
Second compound 94.9 pM, first compound 3 µM
  viability, T/C: 107%
Second compound 94.9 pM, first compound 9.49 µM
  viability, T/C: 98.7%
Second compound 94.9 pM, first compound 30 µM
  viability, T/C: 54.6%
Second compound 0.0003 µM, first compound 0.0949 µM
  viability, T/C: 94.9%
Second compound 0.0003 µM, first compound 0.3 µM
  viability, T/C: 87.4%
Second compound 0.0003 µM, first compound 0.949 µM
  viability, T/C: 79.7%
Second compound 0.0003 µM, first compound 3 µM
  viability, T/C: 58.9%
Second compound 0.0003 µM, first compound 9.49 µM
  viability, T/C: 19.3%
Second compound 0.0003 µM, first compound 30 µM
  viability, T/C: 5.2%
Second compound 0.000949 µM, first compound 0.0949 µM
  viability, T/C: 0.44%
Second compound 0.000949 µM, first compound 0.3 µM
  viability, T/C: 0.4%
Second compound 0.000949 µM, first compound 0.949 µM
  viability, T/C: 0.25%
Second compound 0.000949 µM, first compound 3 µM
  viability, T/C: 0.25%
Second compound 0.000949 µM, first compound 9.49 µM
  viability, T/C: 0.15%
Second compound 0.000949 µM, first compound 30 µM
  viability, T/C: 0.44%
Second compound 0.003 µM, first compound 0.0949 µM
  viability, T/C: 1.64%
Second compound 0.003 µM, first compound 0.3 µM
  viability, T/C: 1.88%
Second compound 0.003 µM, first compound 0.949 µM
  viability, T/C: 1.67%
Second compound 0.003 µM, first compound 3 µM
  viability, T/C: 2.88%
Second compound 0.003 µM, first compound 9.49 µM
  viability, T/C: 3.79%
Second compound 0.003 µM, first compound 30 µM
  viability, T/C: 5.74%
